Measured values as given in the kinase profiling compilation of Christmann-Franck et al. (2016).

Assays:
Assay in all cases: KINOMEscan competition binding
Conditions in all cases: compound 10.0 µM
CDK11B (human) = CDK11B (human) (UniProt P21127)
EPHA5 (human) = EPHA5 (human) (UniProt P54756)
LIMK2 (human) = LIMK2 (human) (UniProt P53671)
MAP3K3 (human) = MAP3K3 (human) (UniProt Q99759)
AXL (human) = AXL (human) (UniProt P30530)
FES (human) = FES (human) (UniProt P07332)
IKBKB (human) = IKBKB (human) (UniProt O14920)
SIK1 (human) = SIK1 (human) (UniProt P57059)
MAPK15 (human) = MAPK15 (human) (UniProt Q8TD08)
PIP5K1A (human) = PIP5K1A (human) (UniProt Q99755)
PAK2 (human) = PAK2 (human) (UniProt Q13177)
CSNK1G3 (human) = CSNK1G3 (human) (UniProt Q9Y6M4)
MAP2K3 (human) = MAP2K3 (human) (UniProt P46734)
PRKD1 (human) = PRKD1 (human) (UniProt Q15139)
GSK3A (human) = GSK3A (human) (UniProt P49840)
TXK (human) = TXK (human) (UniProt P42681)
[1] = tested on: KIT (human), P10721 [D816V]
LCK (human) = LCK (human) (UniProt P06239)
PRKG2 (human) = PRKG2 (human) (UniProt Q13237)
PIK3CD (human) = PIK3CD (human) (UniProt O00329)
ITK (human) = ITK (human) (UniProt Q08881)
FER (human) = FER (human) (UniProt P16591)
NEK5 (human) = NEK5 (human) (UniProt Q6P3R8)
MAPK6 (human) = MAPK6 (human) (UniProt Q16659)
MST4 (human) = MST4 (human) (UniProt Q9P289)
TGFBR2 (human) = TGFBR2 (human) (UniProt P37173)
TESK1 (human) = TESK1 (human) (UniProt Q15569)
RPS6KA5 KD2 (human) = RPS6KA5 KD2 (human) (UniProt O75582)
[2] = target: JAK1 JH2 pseudokinase (human) (UniProt P23458)
PDGFRB (human) = PDGFRB (human) (UniProt P09619)
MAP3K12 (human) = MAP3K12 (human) (UniProt Q12852)
ROS1 (human) = ROS1 (human) (UniProt P08922)
ACVR2B (human) = ACVR2B (human) (UniProt Q13705)
TEC (human) = TEC (human) (UniProt P42680)
MARK4 (human) = MARK4 (human) (UniProt Q96L34)
ROCK2 (human) = ROCK2 (human) (UniProt O75116)
MYLK4 (human) = MYLK4 (human) (UniProt Q86YV6)
NUAK2 (human) = NUAK2 (human) (UniProt Q9H093)
CAMK2A (human) = CAMK2A (human) (UniProt Q9UQM7)
TEK (human) = TEK (human) (UniProt Q02763)

Chain of ACVR2B (human) (Q13705 whole entry, looked up): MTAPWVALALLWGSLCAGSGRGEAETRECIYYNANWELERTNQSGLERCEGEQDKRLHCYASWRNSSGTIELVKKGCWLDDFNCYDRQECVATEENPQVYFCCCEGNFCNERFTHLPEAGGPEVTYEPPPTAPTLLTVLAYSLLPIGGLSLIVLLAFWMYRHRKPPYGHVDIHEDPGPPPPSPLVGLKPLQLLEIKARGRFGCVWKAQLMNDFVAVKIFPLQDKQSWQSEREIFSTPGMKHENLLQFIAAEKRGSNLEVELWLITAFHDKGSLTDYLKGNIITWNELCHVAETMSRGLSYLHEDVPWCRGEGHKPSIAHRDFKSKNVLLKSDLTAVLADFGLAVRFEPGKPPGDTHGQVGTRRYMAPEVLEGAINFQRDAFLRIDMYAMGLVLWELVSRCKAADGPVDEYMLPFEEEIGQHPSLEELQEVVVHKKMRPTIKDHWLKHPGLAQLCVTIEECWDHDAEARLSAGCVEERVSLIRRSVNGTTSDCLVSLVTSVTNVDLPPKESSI
Chain of TESK1 (human) (Q15569 whole entry, looked up): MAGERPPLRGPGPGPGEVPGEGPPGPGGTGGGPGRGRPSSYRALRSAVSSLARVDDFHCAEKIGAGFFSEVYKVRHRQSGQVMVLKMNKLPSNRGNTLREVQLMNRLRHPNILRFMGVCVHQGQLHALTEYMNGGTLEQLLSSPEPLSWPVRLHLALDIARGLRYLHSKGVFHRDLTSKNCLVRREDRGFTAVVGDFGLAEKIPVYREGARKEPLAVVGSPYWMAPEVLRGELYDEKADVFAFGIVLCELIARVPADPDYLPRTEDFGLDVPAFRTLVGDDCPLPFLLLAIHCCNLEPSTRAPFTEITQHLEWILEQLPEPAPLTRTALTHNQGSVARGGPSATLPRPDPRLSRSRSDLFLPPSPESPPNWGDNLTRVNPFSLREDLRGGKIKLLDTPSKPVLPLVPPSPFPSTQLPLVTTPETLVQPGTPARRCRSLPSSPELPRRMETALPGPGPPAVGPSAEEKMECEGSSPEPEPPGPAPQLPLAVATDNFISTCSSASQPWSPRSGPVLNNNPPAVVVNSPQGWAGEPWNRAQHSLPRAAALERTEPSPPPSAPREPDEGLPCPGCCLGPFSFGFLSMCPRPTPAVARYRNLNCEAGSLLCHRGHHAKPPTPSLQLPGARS
Chain of MYLK4 (human) (Q86YV6 whole entry, looked up): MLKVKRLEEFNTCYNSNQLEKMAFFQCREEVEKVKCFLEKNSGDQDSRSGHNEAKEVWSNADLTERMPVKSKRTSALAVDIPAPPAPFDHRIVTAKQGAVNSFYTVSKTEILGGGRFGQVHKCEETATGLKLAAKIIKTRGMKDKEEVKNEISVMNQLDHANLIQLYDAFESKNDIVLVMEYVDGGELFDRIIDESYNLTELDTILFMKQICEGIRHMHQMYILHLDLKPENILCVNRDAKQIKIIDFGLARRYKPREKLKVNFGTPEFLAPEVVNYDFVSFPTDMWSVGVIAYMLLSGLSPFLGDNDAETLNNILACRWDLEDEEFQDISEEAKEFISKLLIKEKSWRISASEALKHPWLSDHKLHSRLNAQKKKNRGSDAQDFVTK
Chain of LIMK2 (human) (P53671 whole entry, looked up): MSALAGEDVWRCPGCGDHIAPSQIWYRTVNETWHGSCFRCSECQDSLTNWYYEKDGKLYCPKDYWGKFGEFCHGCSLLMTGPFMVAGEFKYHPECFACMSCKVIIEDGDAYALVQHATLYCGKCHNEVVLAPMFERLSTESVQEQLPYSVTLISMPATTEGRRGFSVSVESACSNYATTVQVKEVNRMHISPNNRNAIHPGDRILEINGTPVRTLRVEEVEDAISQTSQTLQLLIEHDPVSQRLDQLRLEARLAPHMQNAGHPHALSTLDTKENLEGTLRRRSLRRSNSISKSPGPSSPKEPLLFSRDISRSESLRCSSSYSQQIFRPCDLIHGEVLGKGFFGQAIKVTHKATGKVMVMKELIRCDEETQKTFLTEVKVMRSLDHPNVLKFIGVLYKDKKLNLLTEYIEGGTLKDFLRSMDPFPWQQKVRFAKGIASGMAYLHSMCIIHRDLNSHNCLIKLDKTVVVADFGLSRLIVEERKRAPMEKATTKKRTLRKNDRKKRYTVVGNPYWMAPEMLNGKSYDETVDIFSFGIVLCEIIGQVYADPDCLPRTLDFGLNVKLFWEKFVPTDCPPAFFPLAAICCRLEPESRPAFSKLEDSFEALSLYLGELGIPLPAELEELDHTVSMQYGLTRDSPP
Chain of GSK3A (human) (P49840 whole entry, looked up): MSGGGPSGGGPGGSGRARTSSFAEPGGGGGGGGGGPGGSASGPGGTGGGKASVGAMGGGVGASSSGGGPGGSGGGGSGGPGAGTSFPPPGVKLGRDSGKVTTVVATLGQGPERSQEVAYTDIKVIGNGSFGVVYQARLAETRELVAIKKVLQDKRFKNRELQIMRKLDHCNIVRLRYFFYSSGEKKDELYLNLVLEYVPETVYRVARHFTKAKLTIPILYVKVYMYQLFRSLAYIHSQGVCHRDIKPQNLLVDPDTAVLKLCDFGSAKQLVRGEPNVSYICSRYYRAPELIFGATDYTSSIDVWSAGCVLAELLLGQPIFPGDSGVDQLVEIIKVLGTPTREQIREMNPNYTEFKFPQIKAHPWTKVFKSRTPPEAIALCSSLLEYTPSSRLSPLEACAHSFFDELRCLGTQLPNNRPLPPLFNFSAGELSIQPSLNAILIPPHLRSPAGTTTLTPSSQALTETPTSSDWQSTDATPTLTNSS
Chain of PRKD1 (human) (Q15139 whole entry, looked up): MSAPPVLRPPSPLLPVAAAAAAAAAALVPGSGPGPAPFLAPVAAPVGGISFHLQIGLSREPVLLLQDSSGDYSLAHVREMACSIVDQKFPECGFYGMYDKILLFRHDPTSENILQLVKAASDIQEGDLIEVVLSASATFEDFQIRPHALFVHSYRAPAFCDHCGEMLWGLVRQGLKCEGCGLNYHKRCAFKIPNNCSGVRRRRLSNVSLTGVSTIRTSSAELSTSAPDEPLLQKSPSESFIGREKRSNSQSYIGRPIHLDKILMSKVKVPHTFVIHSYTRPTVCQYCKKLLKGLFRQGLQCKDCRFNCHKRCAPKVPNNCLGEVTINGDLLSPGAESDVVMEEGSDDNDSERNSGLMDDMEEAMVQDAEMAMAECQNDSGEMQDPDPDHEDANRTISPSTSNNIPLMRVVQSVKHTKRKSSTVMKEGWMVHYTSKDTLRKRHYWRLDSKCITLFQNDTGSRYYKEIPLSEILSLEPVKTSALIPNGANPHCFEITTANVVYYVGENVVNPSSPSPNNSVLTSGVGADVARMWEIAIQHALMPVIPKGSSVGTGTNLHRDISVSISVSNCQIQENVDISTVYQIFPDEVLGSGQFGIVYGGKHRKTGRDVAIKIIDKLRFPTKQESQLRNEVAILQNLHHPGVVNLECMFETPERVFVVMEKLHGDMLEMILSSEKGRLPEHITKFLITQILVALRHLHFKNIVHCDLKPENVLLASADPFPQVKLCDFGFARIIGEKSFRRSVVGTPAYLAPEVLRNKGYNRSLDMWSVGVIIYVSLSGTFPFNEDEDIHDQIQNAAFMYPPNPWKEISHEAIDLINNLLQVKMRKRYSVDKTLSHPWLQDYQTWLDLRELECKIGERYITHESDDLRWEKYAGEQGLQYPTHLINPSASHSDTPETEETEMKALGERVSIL
Chain of MST4 (human) (Q9P289 whole entry, looked up): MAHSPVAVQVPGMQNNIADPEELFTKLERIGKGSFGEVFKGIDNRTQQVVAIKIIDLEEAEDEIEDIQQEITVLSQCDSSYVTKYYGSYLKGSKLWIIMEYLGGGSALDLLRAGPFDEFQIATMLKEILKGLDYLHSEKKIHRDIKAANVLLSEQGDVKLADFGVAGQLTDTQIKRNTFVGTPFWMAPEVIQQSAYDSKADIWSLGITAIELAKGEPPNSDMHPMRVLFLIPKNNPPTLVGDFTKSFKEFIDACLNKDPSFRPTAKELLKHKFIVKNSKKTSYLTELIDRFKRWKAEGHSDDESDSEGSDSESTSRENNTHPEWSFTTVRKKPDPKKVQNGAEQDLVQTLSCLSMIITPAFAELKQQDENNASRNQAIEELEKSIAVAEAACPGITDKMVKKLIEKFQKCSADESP
Chain of IKBKB (human) (O14920 whole entry, looked up): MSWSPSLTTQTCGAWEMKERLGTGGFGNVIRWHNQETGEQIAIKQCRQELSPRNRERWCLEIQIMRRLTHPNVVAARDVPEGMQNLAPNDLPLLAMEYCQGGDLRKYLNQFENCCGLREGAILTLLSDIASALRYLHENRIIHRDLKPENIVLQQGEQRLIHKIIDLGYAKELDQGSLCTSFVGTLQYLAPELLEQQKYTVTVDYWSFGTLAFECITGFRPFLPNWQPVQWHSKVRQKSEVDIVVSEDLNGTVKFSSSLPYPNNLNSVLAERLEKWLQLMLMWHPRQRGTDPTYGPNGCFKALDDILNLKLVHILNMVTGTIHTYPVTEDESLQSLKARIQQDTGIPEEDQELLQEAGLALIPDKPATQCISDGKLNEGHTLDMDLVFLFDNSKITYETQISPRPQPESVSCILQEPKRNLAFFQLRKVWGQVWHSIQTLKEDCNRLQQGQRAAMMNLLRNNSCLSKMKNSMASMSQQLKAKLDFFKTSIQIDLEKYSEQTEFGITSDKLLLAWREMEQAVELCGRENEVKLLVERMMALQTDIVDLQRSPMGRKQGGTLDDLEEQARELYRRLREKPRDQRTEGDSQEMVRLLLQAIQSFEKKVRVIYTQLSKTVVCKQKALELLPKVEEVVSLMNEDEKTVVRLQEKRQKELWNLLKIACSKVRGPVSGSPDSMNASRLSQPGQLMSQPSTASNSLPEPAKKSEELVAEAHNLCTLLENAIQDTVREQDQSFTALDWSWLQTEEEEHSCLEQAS

Compound | kinase still bound, per cent of control (CDK11B (human)) [%] | kinase still bound, per cent of control (EPHA5 (human)) [%] | kinase still bound, per cent of control (LIMK2 (human)) [%] | kinase still bound, per cent of control (MAP3K3 (human)) [%] | kinase still bound, per cent of control (AXL (human)) [%] | kinase still bound, per cent of control (IKBKB (human)) [%] | kinase still bound, per cent of control (SIK1 (human)) [%] | kinase still bound, per cent of control (MAPK15 (human)) [%] | kinase still bound, per cent of control (PIP5K1A (human)) [%] | kinase still bound, per cent of control (PAK2 (human)) [%] | kinase still bound, per cent of control (MAP2K3 (human)) [%] | kinase still bound, per cent of control (PRKD1 (human)) [%] | kinase still bound, per cent of control (GSK3A (human)) [%] | kinase still bound, per cent of control (TXK (human)) [%] | kinase still bound, per cent of control (LCK (human)) [%] | kinase still bound, per cent of control (PRKG2 (human)) [%] | kinase still bound, per cent of control (PIK3CD (human)) [%] | kinase still bound, per cent of control (ITK (human)) [%] | kinase still bound, per cent of control (NEK5 (human)) [%] | kinase still bound, per cent of control (MAPK6 (human)) [%] | other results
N#Cc1c(NC(=O)c2cccc3ccccc23)sc2c1CCCC2 | 95 | 89 | 100 | 96 | 88 | 72 | 92 | 64 | 100 | 97 | 88 | 100 | 72 | 100 | 85 | 86 | 100 | 89 | 79 | 86 | kinase still bound, per cent of control (FES (human)): 100%; kinase still bound, per cent of control (CSNK1G3 (human)): 68%; kinase still bound, per cent of control [1]: 97%; kinase still bound, per cent of control (FER (human)): 92%; kinase still bound, per cent of control (MST4 (human)): 79%; kinase still bound, per cent of control (TGFBR2 (human)): 100%; kinase still bound, per cent of control (TESK1 (human)): 83%; kinase still bound, per cent of control (RPS6KA5 KD2 (human)): 95%; kinase still bound, per cent of control [2]: 90%; kinase still bound, per cent of control (PDGFRB (human)): 44%; kinase still bound, per cent of control (MAP3K12 (human)): 79%; kinase still bound, per cent of control (ROS1 (human)): 90%; kinase still bound, per cent of control (ACVR2B (human)): 67%; kinase still bound, per cent of control (TEC (human)): 91%; kinase still bound, per cent of control (MARK4 (human)): 97%; kinase still bound, per cent of control (ROCK2 (human)): 100%; kinase still bound, per cent of control (MYLK4 (human)): 98%; kinase still bound, per cent of control (NUAK2 (human)): 95%; kinase still bound, per cent of control (CAMK2A (human)): 92%
Cn1c(=O)n(-c2ccc(C(C)(C)C#N)cc2)c2c3cc(-c4cnc5ccccc5c4)ccc3ncc21 | 100 | 100 | 100 | 100 | 100 | 100 | 100 | 100 | 100 | 100 | 100 | 100 | 100 | 100 | 100 | 100 | 7.2 | 100 | 100 | 100 | kinase still bound, per cent of control (FES (human)): 100%; kinase still bound, per cent of control (CSNK1G3 (human)): 100%; kinase still bound, per cent of control [1]: 100%; kinase still bound, per cent of control (FER (human)): 100%; kinase still bound, per cent of control (MST4 (human)): 100%; kinase still bound, per cent of control (TGFBR2 (human)): 100%; kinase still bound, per cent of control (TESK1 (human)): 100%; kinase still bound, per cent of control (RPS6KA5 KD2 (human)): 100%; kinase still bound, per cent of control [2]: 100%; kinase still bound, per cent of control (MAP3K12 (human)): 100%; kinase still bound, per cent of control (ROS1 (human)): 100%; kinase still bound, per cent of control (ACVR2B (human)): 100%; kinase still bound, per cent of control (TEC (human)): 100%; kinase still bound, per cent of control (MARK4 (human)): 100%; kinase still bound, per cent of control (ROCK2 (human)): 100%; kinase still bound, per cent of control (MYLK4 (human)): 100%; kinase still bound, per cent of control (NUAK2 (human)): 100%; kinase still bound, per cent of control (TEK (human)): 100%; kinase still bound, per cent of control (CAMK2A (human)): 100%
CCC(=O)N1CCN(c2ccc(-n3c(=O)ccc4cnc5ccc(-c6cnc7ccccc7c6)cc5c43)cc2C(F)(F)F)CC1 | 97 | 100 | 4.8 | 75 | 46 | 61 | 80 | 79 | 89 | 100 | 80 | 99 | 93 | 54 | 77 | 78 | 51 | 100 | 5.8 | 1.8 | kinase still bound, per cent of control (FES (human)): 41%; kinase still bound, per cent of control (CSNK1G3 (human)): 100%; kinase still bound, per cent of control (MST4 (human)): 89%; kinase still bound, per cent of control (TGFBR2 (human)): 77%; kinase still bound, per cent of control (TESK1 (human)): 58%; kinase still bound, per cent of control (RPS6KA5 KD2 (human)): 100%; kinase still bound, per cent of control [2]: 76%; kinase still bound, per cent of control (PDGFRB (human)): 24%; kinase still bound, per cent of control (MAP3K12 (human)): 100%; kinase still bound, per cent of control (ROS1 (human)): 71%; kinase still bound, per cent of control (ACVR2B (human)): 42%; kinase still bound, per cent of control (TEC (human)): 99%; kinase still bound, per cent of control (MARK4 (human)): 100%; kinase still bound, per cent of control (ROCK2 (human)): 50%; kinase still bound, per cent of control (MYLK4 (human)): 83%; kinase still bound, per cent of control (NUAK2 (human)): 100%; kinase still bound, per cent of control (TEK (human)): 19%; kinase still bound, per cent of control (CAMK2A (human)): 93%
CC[C@@H]1C(=O)N(C)c2cnc(Nc3ccc(C(=O)NC4CCN(C)CC4)cc3OC)nc2N1C1CCCC1 | 100 | 100 | 100 | 100 | 100 | 100 | 100 | 100 | 100 | 100 | 100 | 7 | 100 | 100 | 100 | 100 | 100 | 100 | 100 | 100 | kinase still bound, per cent of control [1]: 100%; kinase still bound, per cent of control (FER (human)): 100%; kinase still bound, per cent of control (MST4 (human)): 100%; kinase still bound, per cent of control (TGFBR2 (human)): 100%; kinase still bound, per cent of control (TESK1 (human)): 100%; kinase still bound, per cent of control (RPS6KA5 KD2 (human)): 14%; kinase still bound, per cent of control [2]: 100%; kinase still bound, per cent of control (PDGFRB (human)): 100%; kinase still bound, per cent of control (MAP3K12 (human)): 100%; kinase still bound, per cent of control (ROS1 (human)): 28%; kinase still bound, per cent of control (ACVR2B (human)): 100%; kinase still bound, per cent of control (TEC (human)): 100%; kinase still bound, per cent of control (MARK4 (human)): 100%; kinase still bound, per cent of control (ROCK2 (human)): 100%; kinase still bound, per cent of control (MYLK4 (human)): 100%; kinase still bound, per cent of control (NUAK2 (human)): 100%; kinase still bound, per cent of control (TEK (human)): 100%; kinase still bound, per cent of control (CAMK2A (human)): 26%
